According to patent US4617314A, “Benzofuran- and benzopyran-carboxamide derivatives” (priority 1983, dated 1986):

Tests used:
[1] = system: hypermotility of mice induced by apomorphine; experiment: Anti-apomorphine Action (mice): suppression of spontaneous motility; assay type: in vivo, mice (male dd-strain); details: 60 min before 0.5 mg/kg apomorphine hydrochloride, 50% suppression of spontaneous motility; for Anti-apomorphine Action ED50, Mice, Motility: p.o.; for ED50: Mus musculus, po
Source text: (§1) Dopamine antagonism was observed by the antagonism to
(1) hypermotility of mice, and
(§2) induced by the administration of apomorphine to the animals which drug acts on dopamine. The response of (1) is considered to be due to the action of dopamine on the mesolimbic system whereas the response of (2) is regarded mainly as the action of dopamine on the extrapyramidal system. As a consequence, a drug having high selectivity to the antagonism to the response of (1) is deemed to be more useful with less extrapyramidal side effects.
Groups of 5 male dd-strain mice were used. Test compounds were orally administered and 60 minutes thereafter, 0.5 mg/kg of apomorphine hydrochloride was intracutaneously administered. Immediately thereafter, spontaneous motility of the mice was measured with the aid of Animex (manufactured by Columbus Company, U.S.A.) for 20 minutes. The procedure was repeated three times with respective groups. The dose of test compounds required for 50% suppression of spontaneous motility of control group was graphically intraporated and determined as ED50 value.

[2] = system: rats administered with methamphetamine; experiment: Methamphetamine Potentiation Action (lethality increasing effect); assay type: in vivo, rats (male Wistar); details: 8 rats/group, methamphetamine hydrochloride 5 mg/kg i.p.
Method: Activation effect was construed as lethality increasing effect of a test drug on rats which were administered with methamphetamine at a non-lethal dose every week. Accordingly, it is considered that the greater is the number of rats which died at a lower dose in an earlier week, the activation activity is the higher.
Groups of 8 male Wistar rats weighing above […] were used. Test compounds are intraperitoneally administered and 15 minutes thereafter, 5 mg/kg of methamphetamine hydrochloride was intraperitoneally administered. Number of dead rats within one week was counted. In the 2nd to 4th week, experiment was likewise repeated at one week intervals by the administration of test compounds and methamphetamine hydrochloride.

[3] = system: stereotyped behavior of rats induced by apomorphine; experiment: Anti-apomorphine Action (rats): suppression of gnawing (stereotyped) behavior; assay type: in vivo, rats (female Wistar); details: Rattus norvegicus, po, 60 min before 1.25 mg/kg i.v. apomorphine hydrochloride; 50% suppression of gnawing behavior; probit
Source text: as §1
(2) stereotyped behavior of rats
as §2
Groups of 7 female Wistar rats were used. Test compounds were orally administered, 60 minutes thereafter, apomorphine hydrochloride was intravenously administered at a dosage of 1.25 mg/kg. After 5 minutes and 20 minutes, respectively, whether gnawing behavior (stereotyped behavior) appears or not during the period of 5 minutes was observed. The dose of test compounds required for 50% suppression of the appearance was evaluated as ED50 value by probit method.

[4] = in vivo, po; cited from earlier work
[5] = system: extrapyramidal system; details: cited from earlier work
[6] = in vivo; cited from earlier work

## CCN1CCCC1CNC(=O)c1cc(S(N)(=O)=O)cc2c1OC(C)C2 (single isomer, unassigned) [B, N-(1-ethyl-2-pyrrolidinylmethyl)-2-methyl-5-sulfamoyl-2,3-dihydrobenzofuran-7-carboxamide]
[1]
  Anti-apomorphine Action ED50, Mice, Motility: 23 mg/kg

## CCN1CCCC1CNC(=O)c1cc(S(N)(=O)=O)cc2c1OC(C)C2 (single isomer, unassigned) [C, N-(1-ethyl-2-pyrrolidinylmethyl)-2-methyl-5-sulfamoyl-2,3-dihydrobenzofuran-7-carboxamide]
[1]
  Anti-apomorphine Action ED50, Mice, Motility: 85 mg/kg

## CCN1CCCC1CNC(=O)c1cc(S(N)(=O)=O)cc2c1OC(C)C2 (centres unmarked) [A, N-(1-ethyl-2-pyrrolidinylmethyl)-2-methyl-5-sulfamoyl-2,3-dihydrobenzofuran-7-carboxamide]
[2]; 1st Week, 5 mg/kg
  Methamphetamine Potentiation Action, Number of Dead Animal, Total Number: 1
[2]; 1st Week, 10 mg/kg
  Methamphetamine Potentiation Action, Number of Dead Animal, Total Number: 0
[2]; 1st Week, 20 mg/kg
  Methamphetamine Potentiation Action, Number of Dead Animal, Total Number: 2
[2]; 2nd Week, 5 mg/kg
  Methamphetamine Potentiation Action, Number of Dead Animal, Total Number: 1
[2]; 2nd Week, 10 mg/kg
  Methamphetamine Potentiation Action, Number of Dead Animal, Total Number: 3
[2]; 2nd Week, 20 mg/kg
  Methamphetamine Potentiation Action, Number of Dead Animal, Total Number: 5
[2]; 3rd Week, 5 mg/kg
  Methamphetamine Potentiation Action, Number of Dead Animal, Total Number: 1
[2]; 3rd Week, 10 mg/kg
  Methamphetamine Potentiation Action, Number of Dead Animal, Total Number: 4
[2]; 3rd Week, 20 mg/kg
  Methamphetamine Potentiation Action, Number of Dead Animal, Total Number: 5
[2]; 4th Week, 5 mg/kg
  Methamphetamine Potentiation Action, Number of Dead Animal, Total Number: 1
[2]; 4th Week, 10 mg/kg
  Methamphetamine Potentiation Action, Number of Dead Animal, Total Number: 4
[2]; 4th Week, 20 mg/kg
  Methamphetamine Potentiation Action, Number of Dead Animal, Total Number: 7
[1]
  ED50: 80 mg/kg
[3]
  ED50: > 100 mg/kg

## CC1Cc2cc(S(N)(=O)=O)cc(C(=O)NC3CCN(Cc4ccccc4)C3)c2O1 (centres unmarked) [Compound E, N-(1-benzyl-3-pyrrolidinyl)-2-methyl-5-sulfamoyl-2,3-dihydrobenzofuran-7-carboxamide]
[1]
  ED50: 100 mg/kg
[3]
  ED50: > 100 mg/kg

## CCCCN1CCCC1CNC(=O)c1cc(S(N)(=O)=O)cc2c1OC(C)C2 (centres unmarked) [Compound I, N-(1-butyl-2-pyrrolidinylmethyl)-2-methyl-5-sulfamoyl-2,3-dihydrobenzofuran-7-carboxamide]
[1]
  ED50: 30 mg/kg
[3]
  ED50: > 100 mg/kg

## CC1Cc2cc(S(N)(=O)=O)cc(C(=O)NCC3CCCN3Cc3ccccc3)c2O1 (centres unmarked) [D, N-(1-benzyl-2-pyrrolidinylmethyl)-2-methyl-5-sulfamoyl-2,3-dihydrobenzofuran-7-carboxamide]
[1]
  ED50: 6 mg/kg
[3]
  ED50: 21 mg/kg

## NS(=O)(=O)c1cc2c(c(C(=O)NCC3CCCN3Cc3ccccc3)c1)OCC2 (centres unmarked) [F, N-(1-benzyl-2-pyrrolidinylmethyl)-5-sulfamoyl-2,3-dihydrobenzofuran-7-carboxamide]
[2]; 1st Week, 10 mg/kg
  Methamphetamine Potentiation Action, Number of Dead Animal, Total Number: 0
[2]; 1st Week, 25 mg/kg
  Methamphetamine Potentiation Action, Number of Dead Animal, Total Number: 0
[2]; 1st Week, 50 mg/kg
  Methamphetamine Potentiation Action, Number of Dead Animal, Total Number: 0
[2]; 2nd Week, 10 mg/kg
  Methamphetamine Potentiation Action, Number of Dead Animal, Total Number: 0
[2]; 2nd Week, 25 mg/kg
  Methamphetamine Potentiation Action, Number of Dead Animal, Total Number: 0
[2]; 2nd Week, 50 mg/kg
  Methamphetamine Potentiation Action, Number of Dead Animal, Total Number: 2
[2]; 3rd Week, 10 mg/kg
  Methamphetamine Potentiation Action, Number of Dead Animal, Total Number: 0
[2]; 3rd Week, 25 mg/kg
  Methamphetamine Potentiation Action, Number of Dead Animal, Total Number: 1
[2]; 3rd Week, 50 mg/kg
  Methamphetamine Potentiation Action, Number of Dead Animal, Total Number: 3
[2]; 4th Week, 10 mg/kg
  Methamphetamine Potentiation Action, Number of Dead Animal, Total Number: 1
[2]; 4th Week, 25 mg/kg
  Methamphetamine Potentiation Action, Number of Dead Animal, Total Number: 2
[2]; 4th Week, 50 mg/kg
  Methamphetamine Potentiation Action, Number of Dead Animal, Total Number: 6
[1]
  ED50: 17 mg/kg
[3]
  ED50: > 100 mg/kg

## CC(C)CN1CCCC1CNC(=O)c1cc(S(N)(=O)=O)cc2c1OCC2 (centres unmarked) [G, N-(1-isobutyl-2-pyrrolidinylmethyl)-5-sulfamoyl-2,3-dihydrobenzofuran-7-carboxamide]
[1]
  ED50: 35 mg/kg
[3]
  ED50: > 100 mg/kg

## CC(C)CN1CCCC1CNC(=O)c1cc(S(N)(=O)=O)cc2c1OC(C)C2 (centres unmarked) [H, N-(1-isobutyl-2-pyrrolidinylmethyl)-2-methyl-5-sulfamoyl-2,3-dihydrobenzofuran-7-carboxamide]
[2]; 1st Week, 20 mg/kg
  Methamphetamine Potentiation Action, Number of Dead Animal, Total Number: 0
[2]; 1st Week, 40 mg/kg
  Methamphetamine Potentiation Action, Number of Dead Animal, Total Number: 2
[2]; 2nd Week, 20 mg/kg
  Methamphetamine Potentiation Action, Number of Dead Animal, Total Number: 6
[2]; 2nd Week, 40 mg/kg
  Methamphetamine Potentiation Action, Number of Dead Animal, Total Number: 4
[2]; 3rd Week, 20 mg/kg
  Methamphetamine Potentiation Action, Number of Dead Animal, Total Number: 6
[2]; 3rd Week, 40 mg/kg
  Methamphetamine Potentiation Action, Number of Dead Animal, Total Number: 7
[2]; 4th Week, 20 mg/kg
  Methamphetamine Potentiation Action, Number of Dead Animal, Total Number: 7
[2]; 4th Week, 40 mg/kg
  Methamphetamine Potentiation Action, Number of Dead Animal, Total Number: 7
[1]
  ED50: 19 mg/kg
[3]
  ED50: 60 mg/kg

## CCN1CCCC1CNC(=O)c1cc(S(=O)(=O)NC)cc2c1OC(C)C2.Cl (centres unmarked) [J, N-(1-ethyl-2-pyrrolidinylmethyl)-2-methyl-5-methylsulfamoyl-2,3-dihydrobenzofuran-7-carboxamide hydrochloride]
[1]
  ED50: 10 mg/kg
[3]
  ED50: > 100 mg/kg

## CCN1CCCC1CNC(=O)c1cc(SC)cc2c1OC(C)C2.Cl (centres unmarked) [K, N-(1-ethyl-2-pyrrolidinylmethyl)-2-methyl-5-methylthio-2,3-dihydrobenzofuran-7-carboxamide hydrochloride]
[1]
  ED50: 0.65 mg/kg
[3]
  ED50: 0.2 mg/kg

## CCN1CCCC1CNC(=O)c1cc(S(N)(=O)=O)cc2c1OCC2.O (centres unmarked) [L, N-(1-ethyl-2-pyrrolidinylmethyl)-5-sulfamoyl-2,3-dihydrobenzofuran-7-carboxamide monohydrate]
[2]; 1st Week, 25 mg/kg
  Methamphetamine Potentiation Action, Number of Dead Animal, Total Number: 3
[2]; 2nd Week, 25 mg/kg
  Methamphetamine Potentiation Action, Number of Dead Animal, Total Number: 3
[2]; 3rd Week, 25 mg/kg
  Methamphetamine Potentiation Action, Number of Dead Animal, Total Number: 7
[2]; 4th Week, 25 mg/kg
  Methamphetamine Potentiation Action, Number of Dead Animal, Total Number: 8

## CCN1CCCC1CNC(=O)c1cc(S(N)(=O)=O)ccc1OC (centres unmarked) [Sulpyride, reference compound]
[4]
  uptake rate in living organisms: low uptake rate
[2]; 1st Week, 20 mg/kg
  Methamphetamine Potentiation Action, Number of Dead Animal, Total Number: 0
[2]; 1st Week, 40 mg/kg
  Methamphetamine Potentiation Action, Number of Dead Animal, Total Number: 0
[2]; 1st Week, 80 mg/kg
  Methamphetamine Potentiation Action, Number of Dead Animal, Total Number: 2
[2]; 2nd Week, 20 mg/kg
  Methamphetamine Potentiation Action, Number of Dead Animal, Total Number: 0
[2]; 2nd Week, 40 mg/kg
  Methamphetamine Potentiation Action, Number of Dead Animal, Total Number: 0
[2]; 2nd Week, 80 mg/kg
  Methamphetamine Potentiation Action, Number of Dead Animal, Total Number: 3
[2]; 3rd Week, 20 mg/kg
  Methamphetamine Potentiation Action, Number of Dead Animal, Total Number: 0
[2]; 3rd Week, 40 mg/kg
  Methamphetamine Potentiation Action, Number of Dead Animal, Total Number: 1
[2]; 3rd Week, 80 mg/kg
  Methamphetamine Potentiation Action, Number of Dead Animal, Total Number: 3
[2]; 4th Week, 20 mg/kg
  Methamphetamine Potentiation Action, Number of Dead Animal, Total Number: 0
[2]; 4th Week, 40 mg/kg
  Methamphetamine Potentiation Action, Number of Dead Animal, Total Number: 1
[2]; 4th Week, 80 mg/kg
  Methamphetamine Potentiation Action, Number of Dead Animal, Total Number: 3
[1]
  ED50: 330 mg/kg
[3]
  ED50: > 500 mg/kg
[5]; as opposed to butyrophenone-series (haloperidol) or phenothiazine-series (chlorpromazine) compounds
  cataleptogenic activity: weak
[5]; in vivo
  side effects on the extrapyramidal system: less side effects
[6]
  crossing of blood-brain barrier: difficult to cross blood-brain barrier
